# In patent US11773062B2, “Deuterated compounds” (priority 2021, dated 2023):
# Read-outs that look alike come from different tables or passages of the source.
# Experiments:
# [1] = target: T1, CYP1A2 (Homo sapiens, UniProt P05177); test: in vitro; conditions: E. coli CYPEX membranes, 100 pmol/mL CYP
# T1 sequence (P05177 1-516): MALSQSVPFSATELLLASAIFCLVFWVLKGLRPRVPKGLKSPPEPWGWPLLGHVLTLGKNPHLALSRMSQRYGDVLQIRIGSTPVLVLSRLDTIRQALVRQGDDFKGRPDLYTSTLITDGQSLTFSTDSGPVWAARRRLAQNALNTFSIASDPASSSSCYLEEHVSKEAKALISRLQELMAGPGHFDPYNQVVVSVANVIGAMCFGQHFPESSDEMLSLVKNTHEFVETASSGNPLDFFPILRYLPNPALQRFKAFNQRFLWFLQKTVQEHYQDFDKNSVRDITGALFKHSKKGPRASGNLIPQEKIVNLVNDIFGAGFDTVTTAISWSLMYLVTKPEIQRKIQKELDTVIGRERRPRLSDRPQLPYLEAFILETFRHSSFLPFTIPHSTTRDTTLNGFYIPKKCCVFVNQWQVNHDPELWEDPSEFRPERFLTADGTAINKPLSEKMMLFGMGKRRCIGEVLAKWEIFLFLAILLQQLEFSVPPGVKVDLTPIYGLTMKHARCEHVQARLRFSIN
# Method: (§1) Samples were taken at predetermined time points.
# (§2) Samples were then centrifuged at −4° C.
# (§3) Positive control markers are as specified in Table 11.
# [2] = target: T2, CYP2B6 (Homo sapiens, UniProt P20813); test: in vitro; conditions: E. coli CYPEX membranes, 100 pmol/mL CYP
# T2 sequence (P20813 1-491): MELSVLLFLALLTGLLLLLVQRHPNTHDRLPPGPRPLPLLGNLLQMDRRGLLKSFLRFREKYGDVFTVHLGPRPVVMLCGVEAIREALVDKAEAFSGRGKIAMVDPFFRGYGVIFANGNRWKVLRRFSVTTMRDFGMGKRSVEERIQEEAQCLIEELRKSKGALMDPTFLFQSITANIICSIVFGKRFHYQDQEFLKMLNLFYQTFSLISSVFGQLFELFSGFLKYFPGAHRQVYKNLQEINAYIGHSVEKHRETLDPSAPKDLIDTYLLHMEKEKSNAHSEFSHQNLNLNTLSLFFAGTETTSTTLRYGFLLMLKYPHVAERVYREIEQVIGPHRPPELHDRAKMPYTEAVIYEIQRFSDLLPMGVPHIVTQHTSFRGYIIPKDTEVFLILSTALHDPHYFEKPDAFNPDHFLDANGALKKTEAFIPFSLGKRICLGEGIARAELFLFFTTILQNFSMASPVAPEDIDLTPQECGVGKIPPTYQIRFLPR
# Method: as §1, §2, §3
# [3] = target: T3, CYP2C8 (Homo sapiens, UniProt P10632); test: in vitro; conditions: E. coli CYPEX membranes, 100 pmol/mL CYP
# T3 sequence (P10632 1-490): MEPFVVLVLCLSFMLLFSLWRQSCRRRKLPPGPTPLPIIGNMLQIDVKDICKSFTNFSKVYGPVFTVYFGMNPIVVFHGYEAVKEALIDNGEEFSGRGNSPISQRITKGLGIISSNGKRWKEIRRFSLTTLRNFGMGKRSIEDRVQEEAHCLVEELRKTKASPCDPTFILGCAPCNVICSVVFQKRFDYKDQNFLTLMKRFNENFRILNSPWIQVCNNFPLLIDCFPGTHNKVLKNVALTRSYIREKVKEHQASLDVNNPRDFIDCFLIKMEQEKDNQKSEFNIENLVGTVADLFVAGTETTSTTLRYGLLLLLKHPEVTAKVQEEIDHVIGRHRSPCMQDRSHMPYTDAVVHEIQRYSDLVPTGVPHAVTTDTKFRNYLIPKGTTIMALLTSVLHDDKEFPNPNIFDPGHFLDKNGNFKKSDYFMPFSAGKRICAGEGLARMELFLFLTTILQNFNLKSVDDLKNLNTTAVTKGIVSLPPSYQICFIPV
# Method: as §1, §2, §3
# [4] = target: CYP3A5 (Homo sapiens, UniProt P20815); test: in vitro; conditions: E. coli CYPEX membranes, 100 pmol/mL CYP
# Sequence of CYP3A5 (P20815 whole entry): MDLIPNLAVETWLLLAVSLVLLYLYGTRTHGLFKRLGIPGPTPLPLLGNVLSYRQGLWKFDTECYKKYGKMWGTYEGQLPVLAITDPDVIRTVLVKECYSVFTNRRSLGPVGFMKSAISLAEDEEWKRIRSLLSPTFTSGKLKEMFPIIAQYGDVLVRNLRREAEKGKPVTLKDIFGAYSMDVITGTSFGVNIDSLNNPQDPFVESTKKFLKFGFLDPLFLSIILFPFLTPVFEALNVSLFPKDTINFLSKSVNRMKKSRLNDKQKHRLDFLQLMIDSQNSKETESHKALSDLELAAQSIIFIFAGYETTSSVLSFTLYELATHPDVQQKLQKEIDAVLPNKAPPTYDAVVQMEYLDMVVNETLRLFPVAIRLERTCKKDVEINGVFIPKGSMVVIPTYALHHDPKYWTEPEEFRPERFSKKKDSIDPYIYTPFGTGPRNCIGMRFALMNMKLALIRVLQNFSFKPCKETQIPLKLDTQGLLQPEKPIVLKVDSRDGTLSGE
# Method: as §1, §2, §3
# [5] = target: CYP2C19 (Homo sapiens, UniProt P33261); test: CYP phenotyping, CYP bactosomes; conditions: for half-life, CYP isoform 2C19 / intrinsic clearance, CYP isoform 2C19: E. coli CYPEX membranes, 100 pmol/mL CYP; for projected scaled intrinsic clearance, CYP isoform 2C19: scaled by estimated CYP abundance in human liver microsomes (0.009 nmol CYP/mg); for substrate for CYP2C19: CYP phenotyping
# Sequence of CYP2C19 (P33261 whole entry, canonical isoform): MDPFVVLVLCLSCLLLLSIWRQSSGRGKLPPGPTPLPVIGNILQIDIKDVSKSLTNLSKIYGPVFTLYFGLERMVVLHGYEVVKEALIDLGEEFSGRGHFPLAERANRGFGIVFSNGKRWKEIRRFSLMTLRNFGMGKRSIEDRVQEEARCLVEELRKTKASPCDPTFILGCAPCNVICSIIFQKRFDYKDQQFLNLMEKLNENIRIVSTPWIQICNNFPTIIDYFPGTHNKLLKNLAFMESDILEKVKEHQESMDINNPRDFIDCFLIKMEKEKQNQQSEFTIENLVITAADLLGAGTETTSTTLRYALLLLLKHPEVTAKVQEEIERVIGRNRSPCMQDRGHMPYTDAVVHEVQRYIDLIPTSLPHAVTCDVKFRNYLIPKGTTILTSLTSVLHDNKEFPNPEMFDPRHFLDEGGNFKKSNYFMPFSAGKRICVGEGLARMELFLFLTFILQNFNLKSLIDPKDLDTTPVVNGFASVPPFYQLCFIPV
# Method: as §1, §2, §3
# [6] = target: CYP2C9 (Homo sapiens, UniProt P11712); test: CYP phenotyping, CYP bactosomes; conditions: E. coli CYPEX membranes, 100 pmol/mL CYP
# Sequence of CYP2C9 (P11712 whole entry): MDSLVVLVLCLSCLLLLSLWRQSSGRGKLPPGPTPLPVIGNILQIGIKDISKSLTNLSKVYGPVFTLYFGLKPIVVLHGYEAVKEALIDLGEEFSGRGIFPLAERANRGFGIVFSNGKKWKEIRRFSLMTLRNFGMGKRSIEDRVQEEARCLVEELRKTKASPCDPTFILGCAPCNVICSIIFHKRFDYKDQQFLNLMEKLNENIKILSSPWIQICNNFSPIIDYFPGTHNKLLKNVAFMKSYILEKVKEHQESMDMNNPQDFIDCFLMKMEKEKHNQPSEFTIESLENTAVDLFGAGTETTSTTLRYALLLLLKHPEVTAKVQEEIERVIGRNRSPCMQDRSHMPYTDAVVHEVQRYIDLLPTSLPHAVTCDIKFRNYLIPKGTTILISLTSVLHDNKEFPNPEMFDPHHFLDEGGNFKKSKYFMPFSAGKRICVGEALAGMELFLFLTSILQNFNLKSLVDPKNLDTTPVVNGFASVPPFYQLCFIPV
# Method: as §1, §2, §3
# [7] = target: CYP3A4 (Homo sapiens, UniProt P08684); test: CYP phenotyping, CYP bactosomes; conditions: E. coli CYPEX membranes, 100 pmol/mL CYP
# Sequence of CYP3A4 (P08684 whole entry): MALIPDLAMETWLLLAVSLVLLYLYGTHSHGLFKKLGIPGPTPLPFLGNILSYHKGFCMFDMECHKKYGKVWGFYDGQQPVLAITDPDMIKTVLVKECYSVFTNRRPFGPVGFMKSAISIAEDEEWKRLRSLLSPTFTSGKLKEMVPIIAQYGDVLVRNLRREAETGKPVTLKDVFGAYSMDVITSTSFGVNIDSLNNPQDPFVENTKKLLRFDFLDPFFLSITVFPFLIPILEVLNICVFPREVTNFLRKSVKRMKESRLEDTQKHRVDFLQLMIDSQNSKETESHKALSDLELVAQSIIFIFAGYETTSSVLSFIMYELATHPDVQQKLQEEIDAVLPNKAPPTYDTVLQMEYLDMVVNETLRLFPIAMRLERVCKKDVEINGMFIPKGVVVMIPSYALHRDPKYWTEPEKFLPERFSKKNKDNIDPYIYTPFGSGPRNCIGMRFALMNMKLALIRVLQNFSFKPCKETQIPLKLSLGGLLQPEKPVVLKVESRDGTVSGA
# Method: as §1, §2, §3
# [8] = target: T4, CYP2D6 (Homo sapiens, UniProt P10635); test: CYP phenotyping, CYP bactosomes; conditions: for half-life, CYP isoform 2D6 / intrinsic clearance, CYP isoform 2D6: E. coli CYPEX membranes, 100 pmol/mL CYP; for projected scaled intrinsic clearance, CYP isoform 2D6: scaled by estimated CYP abundance in human liver microsomes (0.012 nmol CYP/mg); for substrate for CYP2D6: CYP phenotyping
# T4 sequence (P10635 whole entry, canonical isoform): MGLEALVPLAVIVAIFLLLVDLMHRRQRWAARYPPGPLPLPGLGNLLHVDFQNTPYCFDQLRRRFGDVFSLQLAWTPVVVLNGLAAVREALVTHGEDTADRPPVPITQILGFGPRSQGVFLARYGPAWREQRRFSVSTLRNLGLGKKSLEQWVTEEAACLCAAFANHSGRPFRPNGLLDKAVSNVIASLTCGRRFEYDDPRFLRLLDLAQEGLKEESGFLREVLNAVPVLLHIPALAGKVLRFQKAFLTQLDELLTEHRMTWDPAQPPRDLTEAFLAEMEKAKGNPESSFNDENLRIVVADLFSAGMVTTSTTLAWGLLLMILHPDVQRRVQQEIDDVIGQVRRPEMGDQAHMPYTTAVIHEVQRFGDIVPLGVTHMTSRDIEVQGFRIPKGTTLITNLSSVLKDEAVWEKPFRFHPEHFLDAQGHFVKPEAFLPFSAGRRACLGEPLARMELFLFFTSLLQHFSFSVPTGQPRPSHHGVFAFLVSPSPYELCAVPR
# Method: (§4) The CYPs used in this study are heterologously expressed in E. coli and purchased as individualised forms (CYP bactosomes) from CYPEX. Bactosomes contain recombinant CYP isoenzymes combined with CYP reductase leading to a higher specific activity than liver microsomes.
# (§5) Phosphate buffer is prepared at 0.1 M, pH 7.4 by combining 0.1 M Na2HPO4 and 0.1 M KH2PO4 solutions.
# (§6) Nicotinamide adenine dinucleotide 2′-phosphate reduced tetrasodium salt hydrate (NADPH) is prepared at 10 m<in 0.1 M phosphate buffer (pH 7.4).
# (§7) The individual CYP bactosomes are thawed at room temperature undiluted to 200 pmol/mL and 0.1 M phosphate buffer.
# (§8) Standard final incubation conditions are 1-3 μM compound in a buffer containing 100 pmol/mL CYP bactosome, 1% (v/v) DMSO.
# (§9) The elimination rate constant (k) is calculated using the slope of a ln (MS peak area or response—if internal standard is used) vs. time plot of the test compounds and markers.
# (§10) Intrinsic clearance in μL/min/nmol CYP is calculated using the following equation: Clint=−1000 k/CYP concentration
# (§11) Projected CYP isoform intrinsic clearance accounting for estimated CYP abundance in human liver microsomes (μL/min/mg microsomal protein)* is calculated using the following equation: Projected set isoform intrinsic clearance=Estimated CYP abundance*Clint * Estimated CYP abundance is taken as an average from three literature references 1, 2 3 and the abundances used are as follows (nmol CYP/mg Human Liver Microsomal Protein):
# [9] = Human liver mitochondrial fraction intrinsic clearance of SPL026, SPL028i, SPL028iii, SPL028viii; type: in vitro ADME; conditions: 0.5 mg/mL human liver mitochondrial fraction (Table 10)
# Source text: Human Liver Mitochondrial (HLMt) fractions contain high quantities of MAO enzymes and therefore, provide a useful tool to measure the clearance of MAO substrates.
# [10] = target: T4, CYP2D6
# Method: as §4, §5, §6, §7, §8, §9, §10, §11
# [11] = test system: mouse (male CD-1) hepatocytes; test: In vitro mouse hepatocytic intrinsic clearance; conditions: mouse CD-1 hepatocytes 0.367 million cells/mL, 5 μM (Table 8)
# [12] = test system: human (mixed gender) hepatocytes; test: In vitro intrinsic clearance in human hepatocytes with and without MAO-A/B inhibitor combination (first experiment); conditions: for % change in half-life, MAO inhibitors vs no inhibitors / % change in intrinsic clearance, MAO inhibitors vs no inhibitors: human hepatocytes (Table 5); for Intrinsic clearance, without inhibitors: without MAO-A/B inhibitor combination (Table 5)
# Method: Standard final incubation conditions are 1 μM compound in buffer containing nominally ˜0.5 million viable cells/mL, ˜0.9% (v/v) acetonitrile (MeCN) and ˜0.1% (v/v) DMSO (specific assay concentrations outlined above, section 2).
# Samples are then centrifuged at 4° C.
# [13] = target: T4, CYP2D6; test: in vitro; conditions: recombinant enzyme, pH 7.4
# Method: as §4, §5, §6, §7, §8, §9, §10, §11
# [14] = human hepatocytes, with 100 nM clorgyline + 100 nM deprenyl/selegiline (Table 3)
# [15] = human hepatocytes, with MAO-A/B inhibitor combination (Table 5)
SMILES,"half-life, CYP isoform 1A2 [1] [h]","half-life, CYP isoform 2B6 [2] [h]","half-life, CYP isoform 2C8 [3] [h]","intrinsic clearance, CYP isoform 2C8 [3] [μL/min/nmol CYP]","half-life, CYP isoform 3A5 [4] [h]","intrinsic clearance, CYP isoform 3A5 [4] [μL/min/nmol CYP]","half-life, CYP isoform 2C19 [5] [h]","intrinsic clearance, CYP isoform 2C19 [5] [μL/min/nmol CYP]","projected scaled intrinsic clearance, CYP isoform 2C19 [5]","half-life, CYP isoform 2C9 [6] [h]","intrinsic clearance, CYP isoform 2C9 [6] [μL/min/nmol CYP]","half-life, CYP isoform 3A4 [7] [h]","intrinsic clearance, CYP isoform 3A4 [7] [μL/min/nmol CYP]","half-life, CYP isoform 2D6 [8] [h]","intrinsic clearance, CYP isoform 2D6 [8] [μL/min/nmol CYP]","projected scaled intrinsic clearance, CYP isoform 2D6 [8]","intrinsic clearance, CYP isoform 1A2 [1] [μL/min/nmol CYP]","intrinsic clearance, CYP isoform 2B6 [2] [μL/min/nmol CYP]",substrate for CYP2C19 [5],"projected scaled intrinsic clearance, CYP isoform 2D6 [10]",further results
CN(C)CCc1c[nH]c2ccccc12 [DMT in SPL028i],>4,>4,>4,<29,>4,<29,2.93,40,0.4 μl/min/mg microsomal protein,>4,<29,>4,<29,0.167,687,8.1 μl/min/mg microsomal protein,,,,,
CN(C)CCc1c[nH]c2ccccc12 [DMT in SPL028ii],>4,>4,>4,<29,>4,<29,2.7,43,0.4 μl/min/mg microsomal protein,>4,<29,>4,<29,0.15,803,9.5 μl/min/mg microsomal protein,,,,,
"[2H]C([2H])(Cc1c[nH]c2ccccc12)N(C)C [SPL028i, α,α,-bis-deuterium-N,N-dimethyltryptamine]",>4,>4,>4,<29,>4,<29,3,39,0.3 μl/min/mg microsomal protein,>4,<29,>4,<29,0.15,793,,<29,<29,substrates,9.4 μl/min/mg microsomal protein,"Intrinsic Clearance [9]: 44.6 μL/min/mg protein; substrate for CYP2D6 [8]: substrates; w Half-life [11]: 0.323 h; w Intrinsic clearance [11]: 97.4 μL/min/million cells; % change in half-life, MAO inhibitors vs no inhibitors [12]: −5.33%; % change in intrinsic clearance, MAO inhibitors vs no inhibitors [12]: 4.67%; Intrinsic clearance, with inhibitors [12, 14]: 7.50 μL/min/million cells; Half-life, with inhibitors [12, 15]: 2.8292 h; Intrinsic clearance, with inhibitors [12, 15]: 7.5 μL/min/million cells; Half-life, with inhibitors ([12]; human hepatocytes, with MAO-A/B inhibitors (Table 4; unit given only in Table 5)): 2.8292 h; quicker intrinsic clearance in the presence of MAO inhibitors ([12]; human hepatocytes, with vs without MAO inhibitors): ~5%; Intrinsic clearance, without inhibitors ([12]; human hepatocytes): 7.15 μL/min/million cells"
"[2H]C([2H])(Cc1c[nH]c2ccccc12)N(C)C [SPL028ii, α,α,-bis-deuterium-N,N-dimethyltryptamine]",>4,>4,>4,<29,>4,<29,2.93,39,0.4 μl/min/mg microsomal protein,>4,<29,>4,<29,0.15,801,,<29,<29,substrates,9.5 μl/min/mg microsomal protein,"substrate for CYP2D6 [8]: substrates; w Half-life [11]: 0.307 h; w Intrinsic clearance [11]: 102.7 μL/min/million cells; % change in half-life, MAO inhibitors vs no inhibitors [12]: 14.69%; % change in intrinsic clearance, MAO inhibitors vs no inhibitors [12]: −19.13%; Intrinsic clearance, with inhibitors [12, 14]: 8.78 μL/min/million cells; Intrinsic clearance, with inhibitors [12, 15]: 8.78 μL/min/million cells; Intrinsic clearance, without inhibitors ([12]; human hepatocytes): 10.46 μL/min/million cells"
COc1ccc2c(c1)[C@]13CCCC[C@@H]1[C@H](C2)N(C)CC3 [Dextromethorphan],,,,,,,,,,,,,,,,,,,,,"intrinsic clearance, CYP isoform 2D6 ([10]; human, recombinant enzyme, pH 7.4): 2686 μL/min/nmol CYP; half-life [13]: 3 min"
